Assay results reported in US20120219543A1, “METHODS AND PHARMACEUTICAL COMPOSITIONS FOR THE TREATMENT OF DISORDERS OF GLUCOSE HOMEOSTASIS” (priority 2009, published 2012).
“Also recorded” adds a separate entry of the source.

Legend:
[1] = tested on: mRNA transcripts (insulin, MafA, ZnT-8, Ngn3, NeuroD1, Pou3F4, somatostatin) in E13.5 Rat pancreases; assay: Real-time PCR of mRNA transcripts in cultured E13.5 rat pancreases; type: cell-based; conditions: for insulin mRNA level increase / ZnT-8 and MafA expression: Glib 5D
Source text: (§1) Pregnant Wistar rats were purchased from the Janvier Breeding centre (CERJ, LeGenet, France). Cftr-knockout (Cftr−/−) and wild-type (Cftr+/+) embryos were obtained from the progeny of heterozygous-heterozygous for the S489X mutation (Snouwaert et al. 1992) matings (CDTA, Orléans, France). The first day postcoitum was taken as embryonic day (E)0.5. Pregnant rats were killed with CO2 asphyxiation and pregnant mice by cervical dislocation according to guidelines issued by the French Animal Care Committee. Dorsal pancreatic buds from E13.5 rat and E12.5 mice embryos were dissected as described previously (Miralles et al. 1998). Briefly, the stomach, pancreas and a small portion of the intestine were dissected together, and then the pancreas primordium was isolated.
(§2) Dorsal pancreatic rudiments were cultured on 0.45 μm filters (Millipore) at the air-medium interface in a 35 mm sterile Petri dishes containing 2 ml RPMI-1640 medium (Invitrogen) supplemented with 100 U/ml penicillin, 100 μg/ml streptomycin, 10 mmol/L HEPES, 2 mmol/L L-glutamine, 1× non-essential aminoacids (Invitrogen) and 10% heat-inactivated fetal calf serum (HyClone, Logan, Utah, USA). Glibenclamide (MP Biomedical), and Glycine hydrazide (GlyH-101)(Calbiochem), used at the indicated concentrations, were first dissolved as concentrated solutions in dimethylsulfoxide DMSO (Sigma), the final concentration of DMSO in the culture medium was less than 0.5% (vol/vol). Glibenclamide and GlyH-101 were added to the media daily. The cultures were incubated at 37° C. in a humidified atmosphere composed of 95% air and 5% CO2. At the end of the culture period, the pancreases were photographied, and fixed as described below or harvested for RNA extraction.
Total RNA was isolated from pools of at least three pancreases using the Qiagen RNeasy Microkit (Qiagen, Courtaboeuf, France) and reverse transcribed using Superscript reagents (Invitrogen). Real-time PCR was performed with the 7300 Fast real-time PCR system (Applied Biosystem) using either Taqman universal PCR master mix or SYBR green PCR master mix (Applied Bio system) with primers and labelled probes specific for each gene. Peptidylpropyl isomerase A/Cyclophilin A was used as endogenous control and E16.5 pancreas cDNA as calibrator sample. The data were analyzed by comparative cycle threshold method (Livak and Schmittgen 2001) and presented as the fold change in gene expression. At least three pools of explants were analysed by condition.

[2] = tested on: E12.5 pancreases from WT (CFTR+/+) mice; assay: Organ culture of E12.5 pancreases from WT (Cftr+/+) mice, insulin-positive cell area; type: cell-based; conditions: 10 μM GlyH-101, 6 days of culture
Method: (§3) FIG. 1: Effects of GlyH-H101 on endocrine cell development. Quantification by real-time PCR of insulin (A) and MafA (B) mRNA transcripts in E 13.5 Rat pancreases before (D0) and after 1, 3, 5 and 7 days of culture (D1, D3, D5 and D7 respectively) with or without 10 μM GlyH-101. Each data point represents the mean±sem of at least four independent experiments ***, p<0.001. (C) Immunohistological analysis of E13.5 Rat pancreases cultured 5 days in the presence or in absence of 10 μM GlyH-101. Insulin and amylase staining were respectively in red and green. Nuclei were stained in blue with Hoechst. Scale bar: 50 μm (D). β cell differentiation was evaluated by quantification of the absolute surface area occupied by insulin staining in E 13.5 Rat pancreases after 5 days of culture in presence or in absence of 10 μM GlyH-101. Values are means±sem of at least three independent experiments *, p<0.05; (E) Quantification by real-time PCR of Ngn3 transcripts in E13.5 Rat pancreases before (D0) and after 1, 3, 5 and 7 days of culture (D0, D1, D3, D5 and D7 respectively) with or without 10 μM GlyH-101. […] (G) Quantification of the number of NGN3 positive-cells in E13.5 Rat pancreases cultured for 5 days in presence or in absence of 10 μM GlyH-101. […]
(§4) To quantify the surface area of insulin, glucagon, PCSK1/3, CPA and amylase-expressing cells, all sections of each pancreatic rudiment were digitized. […]

[3] = tested on: E13.5 Rat embryonic pancreases (PDX-1+ progenitors, insulin-expressing cells); assay: BrdU incorporation (proliferation) in cultured E13.5 rat pancreases; type: cell-based; conditions: 10 μM GlyH-101, D5, BrdU during last hour
Method: as §2, with “Glibenclamide and GlyH-101 were added to the media daily. The cultures were incubated at 37° C. in a humidified atmosphere composed of 95% air and 5% CO2. At the end of the culture period, the pancreases were photographied, and fixed as described below or harvested for RNA extraction.” left out
To quantify the surface area of insulin, glucagon, PCSK1/3, CPA and amylase-expressing cells, all sections of each pancreatic rudiment were digitized. […] The surface of insulin, glucagon, PCSK1/3, CPA, amylase and Hoechst stainings were quantified using Iplab (Scanalytics). […] To measure proliferation of the early progenitors expressing PDX1, we counted the frequency of BrdU positive progenitors expressing PDX1 among 3000 early progenitors expressing PDX1 per rudiment. To quantify the absolute number of NGN3-expressing cells, pancreatic rudiments were sectioned and all sections were stained with an anti-NGN3 antibody. Positive cells were counted on all sections of each pancreatic rudiment. […]

[4] = tested on: E12.5 pancreases from knockout (CFTR-/-) mice; assay: Organ culture of E12.5 pancreases from Cftr knockout (Cftr-/-) mice, insulin-positive cell area; type: cell-based; conditions: 10 μM GlyH-101, 6 days of culture
Method: as §3, §4

[5] = tested on: beta cell mass of embryos of pregnant mice; assay: In vivo administration to pregnant mice, insulin staining surface of embryonic pancreas; conditions: E12.5 pregnant mice, 10 mg/kg/day for 5 days, intraperitoneal, embryos harvested at E18.5
Method: To evaluate its effects in vivo, GlyH 101 was administrated to a E12.5 pregnant mice for 5 days at 10 mg/kg/day (according to Yang et al. 2008) in a saline DMSO solution ([…]) by intraperitoneal injection two times a day. The embryos were harvested at E18.5 and the pancreas fixed for histological immunostaining. The surface of insulin staining was quantified and normalized to the whole pancreatic tissue.

[6] = tested on: E13.5 Rat embryonic pancreases; assay: Organ culture of E13.5 rat embryonic pancreases: morphology, immunohistochemistry and surface/cell quantification; type: cell-based
Source text: as §1, §2
The pancreatic rudiments were fixed in 10% formalin, pre-embedded in agarose gel (4% of type VII low-gelling-temperature agarose [Sigma] in H2O) and embedded in paraffin. Immunohistochemistry was performed on 4-μm paraffin sections as previously described) (Duvillie et al. 2006). The primary antibodies were mouse anti insulin (1/2000; Sigma), rabbit anti-glucagon (1/1000; Diasorin), rabbit anti-amylase (1/300; Sigma), rabbit anti-carboxypeptidase A (CPA) (1/600; Biogenesis, Kidlington, Oxford, UK), rabbit anti-PDX1 (1/1000) (Duvillie et al. 2006) mouse anti-BrdU (1/2; Amersham Biosciences, Buckingham, UK), rabbit anti-Proprotein Convertase Subtilisin/Kexin 1/3 (PCSK1/3), rabbit anti-Ngn3 (1/100, (Guillemain et al. 2007) The fluorescent secondary antibodies were fluorescein anti-rabbit antibody (1/200; Jackson Immunoresearch, Baltimore, Md., USA), fluorescein goat anti-rabbit Alexa Fluor 488 (1/400; Invitrogen) and Texas red anti-mouse antibody (1/200; Jackson). Nuclei were stained in blue with Hoechst 33342 (0.3 μg/ml; Invitrogen). Ngn3 detection was performed as previously described (Guillemain et al. 2007) using the Vectastain elite ABC kit (Vector laboratories).
To quantify the surface area of insulin, glucagon, PCSK1/3, CPA and amylase-expressing cells, all sections of each pancreatic rudiment were digitized. Alternate sections were examined to avoid counting the same cell twice. The surface of insulin, glucagon, PCSK1/3, CPA, amylase and Hoechst stainings were quantified using Iplab (Scanalytics). The stained areas were summed to obtain the total surface area per rudiment in mm^2. To measure proliferation of the early progenitors expressing PDX1, we counted the frequency of BrdU positive progenitors expressing PDX1 among 3000 early progenitors expressing PDX1 per rudiment. To quantify the absolute number of NGN3-expressing cells, pancreatic rudiments were sectioned and all sections were stained with an anti-NGN3 antibody. Positive cells were counted on all sections of each pancreatic rudiment. A minimum of three rudiments was analyzed per condition.

CFTR channel = CFTR channel (Homo sapiens, UniProt P13569); conditions: open-channel block mechanism; cited from earlier work
Chain of CFTR channel (P13569 whole entry): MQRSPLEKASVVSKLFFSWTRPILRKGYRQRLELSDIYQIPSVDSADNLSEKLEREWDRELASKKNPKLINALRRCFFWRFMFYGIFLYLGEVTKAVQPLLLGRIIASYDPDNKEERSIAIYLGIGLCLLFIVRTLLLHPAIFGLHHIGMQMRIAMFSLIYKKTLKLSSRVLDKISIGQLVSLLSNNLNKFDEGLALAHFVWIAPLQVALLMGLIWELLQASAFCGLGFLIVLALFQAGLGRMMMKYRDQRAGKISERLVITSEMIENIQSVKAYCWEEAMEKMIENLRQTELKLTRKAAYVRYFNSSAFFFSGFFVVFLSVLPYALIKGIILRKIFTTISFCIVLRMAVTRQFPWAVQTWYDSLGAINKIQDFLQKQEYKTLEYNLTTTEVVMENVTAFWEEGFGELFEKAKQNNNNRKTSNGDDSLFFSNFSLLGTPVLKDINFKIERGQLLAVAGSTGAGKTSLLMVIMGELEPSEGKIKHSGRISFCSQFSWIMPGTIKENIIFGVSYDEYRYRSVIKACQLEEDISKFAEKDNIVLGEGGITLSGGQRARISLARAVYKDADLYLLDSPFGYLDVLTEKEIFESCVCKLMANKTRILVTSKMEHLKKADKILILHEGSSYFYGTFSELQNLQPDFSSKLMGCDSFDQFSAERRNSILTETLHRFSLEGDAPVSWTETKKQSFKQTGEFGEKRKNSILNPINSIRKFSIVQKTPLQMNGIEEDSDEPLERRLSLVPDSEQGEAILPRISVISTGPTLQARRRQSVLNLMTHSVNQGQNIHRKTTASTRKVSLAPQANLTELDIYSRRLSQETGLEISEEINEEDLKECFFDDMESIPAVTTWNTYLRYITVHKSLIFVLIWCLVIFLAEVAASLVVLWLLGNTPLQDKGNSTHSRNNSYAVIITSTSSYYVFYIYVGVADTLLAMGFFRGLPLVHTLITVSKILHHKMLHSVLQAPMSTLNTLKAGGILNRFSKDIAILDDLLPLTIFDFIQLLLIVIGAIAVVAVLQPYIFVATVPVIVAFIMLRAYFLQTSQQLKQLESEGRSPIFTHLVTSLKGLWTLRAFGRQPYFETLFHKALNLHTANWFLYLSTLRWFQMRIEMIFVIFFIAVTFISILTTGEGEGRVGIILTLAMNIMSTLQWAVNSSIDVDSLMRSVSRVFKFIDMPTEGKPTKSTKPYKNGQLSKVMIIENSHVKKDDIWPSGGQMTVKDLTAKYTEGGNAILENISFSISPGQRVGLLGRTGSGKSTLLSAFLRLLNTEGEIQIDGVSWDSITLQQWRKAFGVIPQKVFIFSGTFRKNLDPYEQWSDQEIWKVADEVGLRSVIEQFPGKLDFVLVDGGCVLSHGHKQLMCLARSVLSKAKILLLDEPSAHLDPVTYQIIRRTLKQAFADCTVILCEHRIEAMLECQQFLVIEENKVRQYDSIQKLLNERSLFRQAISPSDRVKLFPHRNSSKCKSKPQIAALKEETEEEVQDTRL

[7] = tested on: human liver cell line HepG2; conditions: HepG2 cultured with 100 μM glibenclamide; cited from earlier work
[8] = 100 μM, 7 days of culture, vs absence

O=C(CNc1ccc2ccccc2c1)NN=Cc1cc(Br)c(O)c(Br)c1O [GlyH-101, N-2-napthalenyl-[(3,5-dibromo-2,4-dihydroxyphenyl)methylene]glycine hvdrazide]
increase of MafA mRNA transcripts ([1]; 10 μM GlyH-101, D3): more than twofold | increase of insulin mRNA transcripts ([1]; 10 μM GlyH-101, D3): more than twofold | increase in Ngn3 expression (real-time PCR) ([1]; 10 μM GlyH-101, D5): 8 fold | insulin expression ([1]; 10 μM GlyH-101, after 5 and 7 days of culture): sixfold | Ngn3 expression (real-time PCR) ([1]; 10 μM GlyH-101, from D1): strong increase | insulin+ cell area [2]: increase | proliferative rate of insulin-expressing cells (BrdU) [3]: No differences | insulin+ cell area [4]: unable to modify | beta cell mass (insulin staining surface normalized to whole pancreatic tissue) [5]: increased | exocrine differentiation ([6]; 10 μM GlyH-101): did not observe any effects | area occupied by insulin-positive cells ([6]; 10 μM GlyH-101, 5 days of culture): dramatic increase | pool/number of Ngn3+ pancreatic endocrine progenitor cells ([6]; 10 μM GlyH-101, D5): increased number; also recorded: amplified and maintained

COc1ccc(Cl)cc1C(=O)NCCc1ccc(S(=O)(=O)NC(=O)NC2CCCCC2)cc1 [glibenclamide]
NeuroD1 expression ([1]; 100 μM, D5): significantly increased; also recorded: twofold | NeuroD1 expression ([1]; 100 μM, D7): enhanced | Pou3F4/Brn4 mRNA level ([1]; 100 μM, D7): significant increase | NeuroD1 mRNA levels ([1]; 100 μM, after 1 and 3 days of culture, vs absence): similar | Ngn3 expression increase ([1]; 100 μM, after 5 days of culture, p<0.001): sevenfold; also recorded: seven | increase in somatostatin expression ([1]; 100 μM, after 7 days of culture): twofold | Ngn3 mRNA level ([1]; 100 μM, after 7 days of culture, p<0.001): dramatically higher; also recorded: threefold | insulin expression (real-time PCR) ([1]; 100 μM, as early as D3): strongly reduced | Ngn3 expression ([1]; 100 μM, day 1 and 3, vs absence): similar | expression of β-cell markers ZnT-8 and MafA ([1]; 100 μM, over the 7 days of culture): did not affect | reversal of low insulin content and reduced insulin gene transcription ([1]; 2 days after glibenclamide removal): completely reverted | insulin mRNA level increase ([1]; D9, vs without): threefold | insulin mRNA level increase ([1]; D11, vs without): twofold | insulin mRNA level increase ([1]; D14, vs without): threefold | ZnT-8 and MafA expression ([1]; after 9, 11 and 14 days of culture, p<0.01): dramatic increase | ZnT-8 and MafA expression ([1]; after 7 days of culture): similar | insulin mRNA level ([1]; glibenclamide only first 5 days of culture (Glib 5D), D7, vs without): identical | CFTR channel inhibition (CFTR channel): inhibits CFTR channel in a dose-dependant manner | toxicity and apoptosis [7]: no toxicity nor apoptosis | pancreatic growth ([6]; 10 nM, 100 nM, 1, 10 or 100 μM glibenclamide vs control, 7 days of culture): similar | number of NGN3+ cells (immunohistochemistry) ([6]; 100 μM, 5 days of culture, vs absence): threefold | increase of the number of glucagon-expressing cells ([6]; 100 μM, 7 days of culture): 3.5 fold | decrease of surface area occupied by the insulin-cell population [6, 8]: 70% | surface area occupied by amylase- and carboxypeptidaseA-positive cells [6, 8]: No differences | surface area occupied by PCSK1/3 staining in PDX-1+ cells ([6]; 100 μM, 7 days of culture, vs without): similar | exocrine (acinar and ductal) development ([6]; 100 μM, 7 days, amylase, carboxypeptidaseA, SPP1 and CFTR markers): did not to modify | apoptosis (Hoechst staining of the nuclei) ([6]; 10 and 100 μM, 7 days of culture, vs without): no difference | overall size of pancreases (quantitative analysis) ([6]; 10 or 100 μM, 7 days of culture): lack of glibenclamide toxicity | insulin-staining area (insulin-positive cells) ([6]; Glib 5D-treated pancreas): significant increase | insulin-expressing cells observed ([6]; Glib-5D pancreases at D9, D11 or D14): A large number | insulin-containing cells detected ([6]; glibenclamide present throughout 9, 11 or 14 days of culture): less | pancreas development ([6]; up to 1 micromolar): did not affect
